Reference: patent EP0799174B1, “BIOCIDAL ALCOHOLS, THEIR PRODUCTION AND THEIR USE” (SCHÜLKE & MAYR GMBH, priority 1994, dated 1996)

Columns and labels:
Assay type in all cases: cell-based
[1] = tested on: Mycobacterium terrae ATCC 15755; test: Germ carrier experiment with standard cotton; set-up: key: E: individual colonies; M: several colonies; +: weak growth; ++: moderate growth; +++: heavy growth; ++++: very heavy growth; ∞: lawn growth; details: Rewopal MPG 40 25.0%, aromatic alcohol 2.0 %, dem. water to 100
Method: • Rewopal MPG 40 25.0% • aromatic alcohol 2.0 % • dem. water to 100
The bacteria are elutriated with 5 ml CSL from a 24 h-old (37°C) culture onto CSA plates measuring approx. 9 cm in diameter, the suspension being diluted with CSL if necessary. The number of CFU/ml is to be determined using surface culture. It should be > 10^9/ml.
The sterilized and dried germ carriers are introduced into the bacterial suspension and left in it for 15 minutes, during which they are turned over twice.
A number (4) of contaminated, thoroughly impregnated germ carriers, corresponding to the proposed removal times - 15, 30, 60 and 120 minutes - is placed in a small dish and 10 ml of the disinfectant solution to be tested in WSH are poured over them. Air bubbles are to be removed by repeated turning of the germ carriers.
After the corresponding action times, the germ carriers are to be removed from the disinfectant solution, and after rinsing twice in each case for 1 min in 10 ml ML solution (see Appendix) to which the deactivating substances were optionally added, the germ carriers are placed onto the surface of a Löwenstein-Jensen nutrient medium with tweezers and moved backwards and forwards 3 to 4 times using light pressure. After inoculating the nutrient medium surface the small cloth is to remain lying directly above the condensed water level of the nutrient medium.
Germ carriers pre-treated in the same way, but kept in WSH for 120 minutes instead of in disinfectant solution are to be inoculated as a control. The inoculated tubes are incubated at 37°C for 3 weeks.

[2] = tested on: Penicillium funiculosum ATCC 36839; test: MIC values, water-soluble (inhibition titre, dilution series in CSL)
[3] = tested on: Proteus vulgaris NCTC 4635; test: as above
[4] = tested on: Candida albicans ATCC 10231; test: as above
Method: (§1) Standard formulation: • Rewopal MPG 40 25.0 g • aromatic alcohol 10 mmol • dem.* water to 100 g • lactic acid for adjusting the pH value to 7.0 q.s.
(§2) In sterile test tubes, 5 ml each of the dilutions of the disinfectant in WSH (water of standardized hardness) are mixed with 5 ml double-concentrated casein peptone soybean flour peptone solution (CSL) or CSL and deactivating substances.
(§3) To determine the bacteriostatic action on Staphylococcus aureus and Proteus mirabilis the tubes are inoculated by adding 0.1 ml of a CSL culture diluted 1:10 with CSL and incubated for 24 h at 37°C.
(§4) To test the fungistatic action, 0.1 ml of an undiluted CSL culture of Candida albicans which has been incubated at 37°C for 72 h is used in each case. Evaluation takes place after 72 h at 37°C.
(§5) The highest dilution of the preparation in CSL or CSL and deactivating substances that still suppresses growth of the test germs after […] incubation serves as the measure of the multiplication-inhibiting action (inhibition titre).
(§6) In the case of the disinhibition tests, the culture media are to be adjusted to a pH value of 7.0 ± 0.2 according to the state of the disinfectant.
(§7) Standard formulation: • aromatic alcohol 5.0 % • Brij 58 5.0 % • 1,3-butanediol to 100 • Test germs: see above • Test method: see above

[5] = tested on: Staphylococcus aureus ATCC 6538; test: as above
Method: as §1, §2, §3, §4, §5, §6, §7

[6] = tested on: Aspergillus niger ATCC 6275; test: as above
[7] = tested on: Germ mixture of Staphylococcus aureus, Staphylococcus epidermis, Escherichia coli, Klebsiella pneumoniae, Enterobacter gergoviae, Pseudomonas aeruginosa …; test: Preservative test: weekly loading of the sample with germ suspension; details: aromatic alcohol 0.5% in sulfosuccinate 12.0% / betaine 3.0% formulation
Description: Standard formulation: • sulfosuccinate 12.0% • betaine 3.0% • aromatic alcohol 0.5% • re-fatting agent • skin care additives • thickener • dem. water to 100 Test germs: Germ mixture of Staphylococcus aureus, Staphylococcus epidermis, Escherichia coli, Klebsiella pneumoniae, Enterobacter gergoviae, Pseudomonas aeruginosa, Pseudomonas fluorescens, Pseudomonas putida, Aspergillus niger, Penicillium funiculosum, Candida albicans; Total germ count 10^8-10^9/ml. Test method: weekly loading of the sample with germ suspension; smear onto CS and Sabouraud agar. See also K.-H. Diehl, P. Oltmanns, J. Ramsbotham, Seife, Öle, Fette, Wachse 118 (1992) 546.
Data expressed semi-qualitatively: • - no growth < 10^2 CFU/g (CFU = colony-forming units) • + slight growth approx. 10^3 CFU/g • ++ moderate growth approx. 10^4-10^5 CFU/g • +++ heavy growth > 10^5 CFU/g

[8] = tested on: Ps. aeruginosa; test: Quantitative surface test according to DGHM, alcoholic surface disinfectant; details: additive (0.05% for single substances) in ethanol 25.0 % / 1-propanol 35.0 % formulation, germs deposited after approx. 20 minutes
Description: Standard formulation: • ethanol (MEK denatured) 25.0 % • 1-propanol 35.0 % • perfume 0.02 % • benzotriazole 0.001 % • Marlipal 013/70 0.1% (isotridecanpolyethyleneglycol-(7)-ether = C13 oxo alcohol + 7 mol ethylene oxide) • active ingredient additive x% • dem. water to 100 Test germ: Ps. aeruginosa Test method:
Quantitative surface test according to DGHM (Deutsche Gesellschaft für Hygiene and Microbiology = German Association for Hygiene and Microbiology). In order to exclude the effectiveness of the readily volatile alcohol components (ethanol, 1-propanol), the preparations were deposited onto the surfaces and the germs were deposited after approx. 20 minutes. Test surfaces: PVC and OP tiles Data as reduction factors (log stages)

[9] = standard formulation: Rewopal MPG 40 25.0 g, aromatic alcohol 10 mmol, dem. water to 100 g, pH 7.0
[10] = standard formulation: aromatic alcohol 5.0 %, Brij 58 5.0 %, 1,3-butanediol to 100

MIC (minimum inhibiting concentration) P. funi. [2, 9] | MIC (minimum inhibiting concentration) P. vulgaris [3, 9] | MIC (minimum inhibiting concentration) C. albicans [4, 9] | MIC (minimum inhibiting concentration) S. aureus [5, 9] | MIC (minimum inhibiting concentration) A. niger [6, 9] | Structure (SMILES) | growth of M. terrae after action time 15' [1] | growth of M. terrae after action time 30' [1] | growth of M. terrae after action time 60' [1] | growth of M. terrae after action time 120' [1] | further results
156 μmol/100 ml test solution | 2,500 μmol/100 ml test solution | 625 μmol/100 ml test solution | 2,500 μmol/100 ml test solution | 156 μmol/100 ml test solution | Cc1cccc(CC(C)(C)CO)c1 [Alcohol 3, 2,2-dimethyl-3-(3-methylphenyl) propanol] | +++ | + | + | E | MIC (minimum inhibiting concentration) P. funi. [2, 10]: 313 µmol/100 ml test solution; MIC (minimum inhibiting concentration) P. vulgaris [3, 10]: 625 µmol/100 ml test solution; MIC (minimum inhibiting concentration) C. albicans [4, 10]: 625 µmol/100 ml test solution; MIC (minimum inhibiting concentration) S. aureus [5, 10]: 625 µmol/100 ml test solution; MIC (minimum inhibiting concentration) A. niger [6, 10]: 625 µmol/100 ml test solution
313 μmol/100 ml test solution | 313 μmol/100 ml test solution | 313 μmol/100 ml test solution | 313 μmol/100 ml test solution | 313 μmol/100 ml test solution | CC(C)(CO)Cc1ccccc1 [Alcohol 2, 2,2-dimethyl-3-phenyl-1-propanol] | +++ | ++ | + | M | growth, 1st week ([7]; 1st week): - (no growth < 10^2 CFU/g); growth, 2nd week ([7]; 2nd week): - (no growth < 10^2 CFU/g); growth, 3rd week ([7]; 3rd week): - (no growth < 10^2 CFU/g); growth, 4th week ([7]; 4th week): - (no growth < 10^2 CFU/g); growth, 5th week ([7]; 5th week): - (no growth < 10^2 CFU/g); reduction factors (log stages) ([8]; PVC, 30'): >6.0 log stages; reduction factors (log stages) ([8]; PVC, 60'): >5.4 log stages; reduction factors (log stages) ([8]; PVC, 240'): >6.5 log stages; reduction factors (log stages) ([8]; Tiles, 30'): 4.1 log stages; reduction factors (log stages) ([8]; Tiles, 60'): 4.9 log stages; reduction factors (log stages) ([8]; Tiles, 240'): >5.8 log stages
